In patent US20200277404A1, “COMPOSITIONS AND METHODS FOR REGULATION OF IMMUNE CELL ACTIVATION AND PROLIFERATION” (MONELL CHEMICAL SENSES CENTER, priority 2017, published 2020):

Tested on: bitter receptors (T2Rs)
Assay: Expression of bitter receptors (T2Rs) in Raw264.7 cells treated with LPS or DEX
Format: cell-based
Conditions: mouse monocyte/macrophage Raw264.7 cell line, FIG. 4
Protocol: The mouse monocyte/macrophage Raw264.7 cell line was also used to study T2Rs. Raw264.7 cells were treated with lipopolysaccharide (LPS) and dexamethasone (DEX).

Substance: lipopolysaccharide [LPS]
- expression levels of some bitter receptors (T2Rs): strongly induced
